Experimental data from publication PMC6528465 (ACS infectious diseases, 2018).

Experiments:
Mtb H37Rv = format: cell-based, Mycobacterium tuberculosis; conditions: no inhibitor
HEK-293 (kidney) = experiment: Mammalian cytotoxicity HEK-293; format: cell-based; conditions: 1% v/v in 0.5% DMSO
A549 (lung) = experiment: Mammalian cytotoxicity A549; format: cell-based; conditions: 1% v/v in 0.5% DMSO
J774A.1 (macrophage) = experiment: Mammalian cytotoxicity J774A.1; format: cell-based; conditions: 1% v/v in 0.5% DMSO

Compound | H37RV MICKAN (Mtb H37Rv) [µg/mL] | cell survival (positive control) (HEK-293 (kidney)) [%] | cell survival (positive control) (A549 (lung)) [%] | cell survival (positive control) (J774A.1 (macrophage)) [%]
NC[C@H]1O[C@H](O[C@H]2[C@H](O)[C@@H](O[C@H]3O[C@H](CO)[C@@H](O)[C@H](N)[C@H]3O)[C@H](N)C[C@@H]2N)[C@H](O)[C@@H](O)[C@@H]1O [KAN, kanamycin] | <1.25 | – | – | –
Triton-X 100 | – | < 5 | < 5 | < 5
